# Data from patent US8846946B2, “Germinal alkoxy/alkylspirocyclic substituted tetramate derivatives” (Bayer CropScience AG, priority 2008, dated 2014).
# Columns and labels:
# Format in all cases: in vivo
# [1] = tested on: Boophilus microplus; test: Boophilus microplus test (BOOPMI injection); conditions: application rate of 20 μg/animal, injection into the abdomen
# Experimental: (§1) • Solvent: dimethyl sulphoxide
# (§2) To prepare a suitable active compound preparation, 1 part by weight of active compound is mixed with the stated amount of solvent, and the concentrate is diluted with water to the desired concentration.
# The solution of active compound is injected into the abdomen (Boophilus microplus), and the animals are transferred into dishes and kept in a climatised room. The activity is assessed by […] of fertile eggs.
# After the desired period of time, the effect in % is determined. 100% means that none of the ticks has laid any fertile eggs.
# [2] = tested on: Lucilia cuprina larvae; test: Lucillia cuprina test (LUCICU); conditions: application rate of 100 ppm, treated horse meat
# Experimental: as §1, §2
# Vessels containing horse meat treated with the active compound preparation of the desired concentration are populated with Lucilia cuprina larvae.
# After the desired period of time, the kill in % is determined. 100% means that all of the larvae have been killed; 0% means that none of the larvae have been killed.
# [3] = tested on: Summer wheat; test: Container trials with cereal in a greenhouse, use of safeners (mefenpyr 1 day prior to herbicide application); conditions: 28 days after application, without safener
# Experimental: Seeds of monocotyledonous and dicotyledonous weed and crop plants are placed in sandy loam in wood fibre pots, covered with soil and cultivated in a greenhouse under good growth conditions. 2 to 3 weeks after sowing, the test plants are treated at the one-leaf stage. The test compounds, formulated as wettable powders (WP), are then, with a water application rate of 600 l/ha (converted), with 0.2% of wetting agent added, sprayed at various dosages onto the green parts of the plants. After the test plants have […], the activity of the preparations is rated visually in comparison to untreated controls (herbicidal activity in percent: 100% activity=the plants have died, 0% activity=like control plants).
# If it is additionally to be tested as to whether safeners can improve the plant compatibility of test substances in the case of crop plants, the following options are used for applying the safener: • seeds of the crop plants are, before sowing, dressed with the safener substance (the amount of safener stated in percent, based on the weight of the seed) • before application of the test substances, the crop plants are sprayed with the safener at a certain application rate per hectare (usually 1 day before the application of the test substances) • the safener is applied together with the test substance as a tank mix (the amount of safener stated in g/ha or as a ratio, based on the herbicide). Container Trials with Cereal in a Greenhouse Mefenpyr 1 Day Prior to Herbicide Application
SMILES,efficacy (no fertile eggs laid) [1],kill in % (larvae killed) [2],Summer wheat observed (%) ([3]; application rate 12.5 g a.i./ha),Summer wheat observed (%) ([3]; application rate 25 g a.i./ha),Summer wheat observed (%) ([3]; application rate 50 g a.i./ha)
CCOC(=O)OC1=C(c2c(C)cc(C)cc2C)C(=O)NC12CCC(C)(OC)CC2 (stereo not drawn) [I-c-3],good efficacy,–,–,–,–
COC1(C)CCC2(CC1)NC(=O)C(c1c(C)cc(Cl)cc1C)=C2O (mixture of isomers) [I-a-3],good efficacy,≥ 80%,–,–,–
CCc1cc(C)cc(C)c1C1=C(O)C2(CCC(CC)(OC)CC2)NC1=O (mixture of isomers) [I-a-64],–,–,20%,60%,70%
